Activity calls are given as the source filed them. No cut-off for these calls is given here.
How the values were obtained:
[1] = molecular target: Histone deacetylase 2 (Homo sapiens, UniProt Q92769); assay: Inhibition of recombinant HDAC2 (unknown origin) using Boc-Lys(acetyl)-AMC as substrate preincubated for 1 hr followed by substrate addition and measured after 2 hrs by fluorescence based microplate reader analysis
[2] = molecular target: T1, Histone deacetylase 7 (Homo sapiens, UniProt Q8WUI4); assay: Inhibition of recombinant HDAC7 (unknown origin) using Boc-Lys (trifluoroacetyl) AMC as substrate preincubated for 1 hr followed by substrate addition and measured after 2 hrs by fluorescence based microplate reader analysis
T1 sequence (Q8WUI4 whole entry): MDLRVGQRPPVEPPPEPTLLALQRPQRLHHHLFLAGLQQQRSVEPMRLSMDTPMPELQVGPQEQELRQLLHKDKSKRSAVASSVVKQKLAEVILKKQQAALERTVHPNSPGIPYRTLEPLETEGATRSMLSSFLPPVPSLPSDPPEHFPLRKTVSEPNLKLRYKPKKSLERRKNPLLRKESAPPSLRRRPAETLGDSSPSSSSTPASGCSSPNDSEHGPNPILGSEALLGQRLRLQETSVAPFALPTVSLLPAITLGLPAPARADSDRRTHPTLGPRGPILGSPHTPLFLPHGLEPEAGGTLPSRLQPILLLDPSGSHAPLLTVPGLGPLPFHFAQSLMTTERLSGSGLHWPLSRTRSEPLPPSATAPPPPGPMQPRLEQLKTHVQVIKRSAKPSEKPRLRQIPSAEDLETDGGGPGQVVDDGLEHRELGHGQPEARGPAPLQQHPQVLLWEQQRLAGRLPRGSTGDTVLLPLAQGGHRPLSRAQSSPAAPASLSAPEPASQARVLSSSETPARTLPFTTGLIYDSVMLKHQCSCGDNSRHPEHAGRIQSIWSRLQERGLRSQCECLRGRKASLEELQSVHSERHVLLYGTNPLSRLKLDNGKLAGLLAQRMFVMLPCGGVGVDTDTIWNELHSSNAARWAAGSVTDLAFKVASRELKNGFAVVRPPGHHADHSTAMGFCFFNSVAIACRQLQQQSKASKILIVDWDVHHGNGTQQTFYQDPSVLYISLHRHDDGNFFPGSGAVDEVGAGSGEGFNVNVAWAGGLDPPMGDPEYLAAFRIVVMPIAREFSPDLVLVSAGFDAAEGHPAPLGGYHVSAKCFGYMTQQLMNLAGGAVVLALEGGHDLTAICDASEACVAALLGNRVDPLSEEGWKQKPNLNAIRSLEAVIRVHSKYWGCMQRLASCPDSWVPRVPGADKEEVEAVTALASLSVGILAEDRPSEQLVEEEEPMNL

[3] = molecular target: Histone deacetylase 9 (Homo sapiens, UniProt Q9UKV0); assay: Inhibition of recombinant HDAC9 (unknown origin) using Boc-Lys (trifluoroacetyl) AMC as substrate preincubated for 1 hr followed by substrate addition and measured after 2 hrs by fluorescence based microplate reader analysis
[4] = molecular target: T2, Protein deacetylase HDAC6 (Homo sapiens) (UniProt Q9UBN7); assay: Inhibition of full length recombinant human HDAC6 in MV4-11 cells assessed as accumulation of acetylated alpha-tubulin at 0.1 to 1 uM measured upto 24 hrs by western blot analysis; type: cell-based; settings: dose 0.1-1 µM, DDE = dose-dependent effect
T2 sequence (whole entry): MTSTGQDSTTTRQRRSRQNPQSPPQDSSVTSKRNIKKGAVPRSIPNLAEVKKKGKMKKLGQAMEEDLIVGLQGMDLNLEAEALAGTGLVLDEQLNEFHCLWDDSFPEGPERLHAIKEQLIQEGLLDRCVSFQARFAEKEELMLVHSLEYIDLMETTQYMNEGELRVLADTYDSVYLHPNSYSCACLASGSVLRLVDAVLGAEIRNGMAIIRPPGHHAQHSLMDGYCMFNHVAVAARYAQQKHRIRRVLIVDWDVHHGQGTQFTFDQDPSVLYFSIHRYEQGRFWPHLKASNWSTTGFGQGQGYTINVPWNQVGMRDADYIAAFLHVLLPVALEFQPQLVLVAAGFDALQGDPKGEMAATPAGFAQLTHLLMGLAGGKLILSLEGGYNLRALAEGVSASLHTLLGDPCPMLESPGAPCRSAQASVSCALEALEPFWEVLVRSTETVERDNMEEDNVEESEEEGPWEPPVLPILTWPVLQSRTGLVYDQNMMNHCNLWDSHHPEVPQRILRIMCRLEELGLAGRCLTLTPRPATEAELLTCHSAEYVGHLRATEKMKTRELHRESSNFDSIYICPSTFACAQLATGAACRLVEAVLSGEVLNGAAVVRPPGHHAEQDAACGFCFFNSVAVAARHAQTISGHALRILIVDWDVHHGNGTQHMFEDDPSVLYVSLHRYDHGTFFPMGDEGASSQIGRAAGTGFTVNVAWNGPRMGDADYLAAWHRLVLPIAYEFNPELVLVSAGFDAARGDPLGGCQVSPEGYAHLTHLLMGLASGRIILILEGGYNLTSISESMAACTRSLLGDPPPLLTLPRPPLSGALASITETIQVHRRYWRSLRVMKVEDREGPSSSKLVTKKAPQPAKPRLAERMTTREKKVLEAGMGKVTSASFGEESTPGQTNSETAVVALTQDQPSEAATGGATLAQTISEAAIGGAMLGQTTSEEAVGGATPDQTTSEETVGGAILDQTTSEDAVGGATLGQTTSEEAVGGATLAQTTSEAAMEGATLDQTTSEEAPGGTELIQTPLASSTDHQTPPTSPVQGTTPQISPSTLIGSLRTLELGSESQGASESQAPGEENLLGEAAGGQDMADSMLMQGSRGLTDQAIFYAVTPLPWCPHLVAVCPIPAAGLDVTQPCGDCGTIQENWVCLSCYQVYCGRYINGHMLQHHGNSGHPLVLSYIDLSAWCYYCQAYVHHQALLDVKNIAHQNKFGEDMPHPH

[5] = molecular target: T3, Protein deacetylase HDAC6 (Homo sapiens, UniProt Q9UBN7); assay: Inhibition of recombinant HDAC6 (unknown origin) using Boc-Lys(acetyl)-AMC as substrate preincubated for 30 mins followed by substrate addition and measured after 2 hrs by fluorescence based microplate reader analysis
T3 sequence (Q9UBN7 whole entry): T2 sequence (whole entry)

[6] = molecular target: T2, Protein deacetylase HDAC6 (Homo sapiens); assay: Inhibition of HDAC6 in human MV4-11 cells assessed as decrease in hyper acetylation of histone alpha tubulin preincubated for 6 hrs followed by compound washout measured after 1 hr by western blot analysis; type: cell-based
[7] = Plasma concentration in CD-1 mouse at 20 mg/kg measured after 0.5 hrs by LC-MS/MS analysis; type: ADME, organism-based
[8] = system: J774.A1; assay: Inhibition of HDAC6/dynein interaction in mouse J774.A1 cells measured after 8 hrs by co-immunoprecipitation based Western blotting analysis; type: cell-based
[9] = system: NCM460; assay: Cytotoxicity against human NCM460 cells assessed as reduction in cell viability at 100 uM measured after 48 hrs by spectrophotometric analysis; type: toxicity, cell-based; settings: ncm460, 48 h
[10] = system: Mus musculus; assay: Inhibition of LPS-induced endotoxic shock in C57BL/6 mouse model serum assessed as decrease in IL-1beta level at 20 mg/kg, po measured after 12 hrs; type: functional, organism-based

Chain of Histone deacetylase 2 (Q92769 whole entry): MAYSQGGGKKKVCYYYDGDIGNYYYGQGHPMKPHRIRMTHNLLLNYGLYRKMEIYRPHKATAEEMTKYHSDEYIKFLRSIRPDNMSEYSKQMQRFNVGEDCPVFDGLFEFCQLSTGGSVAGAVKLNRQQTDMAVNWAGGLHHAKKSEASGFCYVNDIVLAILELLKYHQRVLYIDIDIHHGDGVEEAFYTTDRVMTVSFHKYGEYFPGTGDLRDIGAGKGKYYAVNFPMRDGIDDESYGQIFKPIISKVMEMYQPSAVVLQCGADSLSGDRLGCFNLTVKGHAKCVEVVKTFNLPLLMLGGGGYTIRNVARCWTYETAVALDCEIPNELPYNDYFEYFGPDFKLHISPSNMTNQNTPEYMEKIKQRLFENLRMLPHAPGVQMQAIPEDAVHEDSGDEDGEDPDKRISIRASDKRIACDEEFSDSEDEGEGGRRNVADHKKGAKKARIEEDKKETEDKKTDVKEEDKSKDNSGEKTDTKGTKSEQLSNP
Chain of Histone deacetylase 9 (Q9UKV0 whole entry): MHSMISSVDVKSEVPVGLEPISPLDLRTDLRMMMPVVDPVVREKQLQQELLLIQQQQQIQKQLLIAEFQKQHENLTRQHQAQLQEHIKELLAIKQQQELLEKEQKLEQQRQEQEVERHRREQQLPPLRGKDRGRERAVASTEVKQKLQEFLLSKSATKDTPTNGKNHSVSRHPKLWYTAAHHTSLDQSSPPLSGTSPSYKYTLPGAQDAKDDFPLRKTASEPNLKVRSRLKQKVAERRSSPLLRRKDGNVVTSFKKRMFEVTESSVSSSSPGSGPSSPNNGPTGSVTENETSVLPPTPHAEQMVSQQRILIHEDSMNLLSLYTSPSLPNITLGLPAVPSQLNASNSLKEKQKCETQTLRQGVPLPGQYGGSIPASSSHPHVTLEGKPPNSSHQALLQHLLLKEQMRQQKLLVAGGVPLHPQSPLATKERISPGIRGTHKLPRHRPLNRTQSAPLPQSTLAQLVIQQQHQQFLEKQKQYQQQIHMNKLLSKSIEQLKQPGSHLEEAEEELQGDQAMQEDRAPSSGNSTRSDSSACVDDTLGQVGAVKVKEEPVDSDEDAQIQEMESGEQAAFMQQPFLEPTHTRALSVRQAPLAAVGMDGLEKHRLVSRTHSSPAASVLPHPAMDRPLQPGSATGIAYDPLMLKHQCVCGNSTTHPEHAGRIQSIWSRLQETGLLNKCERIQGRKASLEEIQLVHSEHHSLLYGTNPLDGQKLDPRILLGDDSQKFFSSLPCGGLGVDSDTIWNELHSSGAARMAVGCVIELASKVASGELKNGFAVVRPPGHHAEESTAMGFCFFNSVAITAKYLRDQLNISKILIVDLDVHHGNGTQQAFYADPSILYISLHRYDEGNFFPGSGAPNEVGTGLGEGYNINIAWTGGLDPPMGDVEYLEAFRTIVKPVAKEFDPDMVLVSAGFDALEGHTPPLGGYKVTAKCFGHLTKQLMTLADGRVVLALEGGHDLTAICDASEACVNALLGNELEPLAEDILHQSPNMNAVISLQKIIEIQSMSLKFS

With `CCNNC(=O)c1ccc(CN2c3ccccc3C=Cc3ccncc32)cc1` the IC50 [1] was 2060 nM, the IC50 [2] was over 5 µM and the IC50 [3] was over 5 µM. The inhibition [4] was “Dde”, the IC50 [5] was 31.7 nM and the inhibition [6] was “Active”. For the same compound, the concentration at 0.5 h [7] was 7740 ng/mL, the inhibition [8] was “Active” and the Activity [9] was “Non-Toxic”. For the same compound, the Activity [10] was “Active”.

Reference: ChEMBL document CHEMBL5113527, “First-in-Class Hydrazide-Based HDAC6 Selective Inhibitor with Potent Oral Anti-Inflammatory Activity by Attenuating NLRP3 Inflammasome Activation” (J Med Chem, 2022)
